# Like-named read-outs stand apart in the source and are kept apart here. Square brackets hold non-standard residues; d marks the D form. Side chains are listed from the residue outwards. Ends that are not written are not given here. Peptide text beside a SMILES is read from it. maleimide = maleimide activating group on PEG that reacts with a thiol-containing amino acid by Michael addition to form a thioether linkage (PEGylation); Aib = CC(C)(N)C(=O)O; Sar = CNCC(=O)O
# Key:
# [1] = target: GLP-1 receptor (Homo sapiens, UniProt P43220); assay: GLP-receptor Luciferase assay of prodrug samples incubated in PBS; type: cell-based; settings: Table 5
# [2] = Dipeptide cleavage half time in PBS on model hexapeptide (HPLC, LC-MS); type: physicochemical; settings: for Relative peak area(%), HPLC peak a: molecular weight 702; for Relative peak area(%), HPLC peak b: molecular weight 902
# Method: The hexapeptide was assembled on a peptide synthesizer.
# Then it was incubated at 37° C. in a water bath. […] HPLC was used to monitor the cleavage reaction.
# The flow rate was 1 mL/min.
# The slope of this plot gives the rate constant I′.
# [3] = target: glucagon receptor (Homo sapiens, UniProt P47871); assay: glucagon antagonism of Class 4 peptides, cAMP production in vitro; type: cell-based; settings: PLA at position 6 versus positions 4 and 5
# Sequence of glucagon receptor (P47871 26-477): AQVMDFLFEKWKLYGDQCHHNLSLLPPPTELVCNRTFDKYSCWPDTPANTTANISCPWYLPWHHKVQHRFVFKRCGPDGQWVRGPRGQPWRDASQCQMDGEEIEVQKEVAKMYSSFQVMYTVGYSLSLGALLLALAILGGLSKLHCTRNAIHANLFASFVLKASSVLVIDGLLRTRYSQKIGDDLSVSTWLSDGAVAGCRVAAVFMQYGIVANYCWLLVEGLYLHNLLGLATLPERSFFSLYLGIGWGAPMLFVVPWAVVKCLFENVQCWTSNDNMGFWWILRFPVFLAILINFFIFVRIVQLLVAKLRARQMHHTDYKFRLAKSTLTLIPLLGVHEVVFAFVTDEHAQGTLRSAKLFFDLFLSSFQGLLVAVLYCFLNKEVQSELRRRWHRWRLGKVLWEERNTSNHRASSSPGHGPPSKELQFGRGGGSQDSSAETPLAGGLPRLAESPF
# Sequence of GLP-1 receptor (P43220 24-463, species assumed): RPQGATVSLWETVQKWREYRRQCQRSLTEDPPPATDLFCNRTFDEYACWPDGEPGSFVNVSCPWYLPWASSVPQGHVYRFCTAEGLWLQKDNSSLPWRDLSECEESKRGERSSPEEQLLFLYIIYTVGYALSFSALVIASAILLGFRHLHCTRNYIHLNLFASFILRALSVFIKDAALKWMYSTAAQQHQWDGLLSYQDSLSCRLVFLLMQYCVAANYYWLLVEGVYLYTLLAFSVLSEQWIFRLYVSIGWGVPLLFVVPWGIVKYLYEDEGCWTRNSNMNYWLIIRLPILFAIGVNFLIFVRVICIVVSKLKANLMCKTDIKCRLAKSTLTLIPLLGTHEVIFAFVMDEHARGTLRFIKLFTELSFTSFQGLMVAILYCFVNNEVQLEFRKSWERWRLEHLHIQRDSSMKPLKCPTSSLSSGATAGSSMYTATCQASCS
compound,measurement,setting,value
"40 k PEG-Aib^−1-P^0,C^24GLP(7-36): Aib^−1-P^0,C^24GLP(7-36) pegylated by maleimido-functioned 40 k Da PEG on the SH group of 24-Cys ([Aib]PHAEGTFTSDVSSYLEGQAAKEFIC([maleimide-PEG 40 kDa])WLVKGR; ends and bridges not checked)",EC50%/STD ratio,[1]; 30 h in PBS,17.31%
same,EC50%/STD ratio,[1]; 54 h in PBS,27.74%
same,EC50%/STD ratio,[1]; 240 h in PBS,66.49%
same,EC50%/STD ratio,[1]; […] in PBS,55.90%
C[C@@H](O)[C@H](NC(=O)CNC(=O)[C@H](CCCNC(=N)N)NC(=O)[C@H](CO)NC(=O)[C@H](Cc1c[nH]cn1)NC(=O)CN(C)C(=O)[C@@H](N)CCCCN)C(=O)N[C@@H](Cc1ccccc1)C(N)=O [lys-sar-HSRGTF-NH2] (H-K[Sar]HSRGTF-NH2; N-terminus assumed),"Relative peak area(%), HPLC peak a","[2]; 5 h in PBS pH 7.4, 37° C.",26.5%
same,"Relative peak area(%), HPLC peak b","[2]; 5 h in PBS pH 7.4, 37° C.",73.5%
same,"Relative peak area(%), HPLC peak a",[2]; 8 h in PBS,28.9%
same,"Relative peak area(%), HPLC peak b",[2]; 8 h in PBS,71.1%
same,"Relative peak area(%), HPLC peak a",[2]; 24 h in PBS,28.8%
same,"Relative peak area(%), HPLC peak b",[2]; 24 h in PBS,71.2%
same,"Relative peak area(%), HPLC peak a",[2]; 31 h in PBS,77.7%
same,"Relative peak area(%), HPLC peak b",[2]; 31 h in PBS,22.3%
same,"Relative peak area(%), HPLC peak a",[2]; 47 h in PBS,90.0%
same,"Relative peak area(%), HPLC peak b",[2]; 47 h in PBS,10.0%
same,half-life,"[2]; phosphate buffered saline (PBS) buffer, pH 7.4",14 h
C[C@H](O)[C@@H](NC(=O)CNC(=O)[C@@H](CCCNC(=N)N)NC(=O)[C@H](NC(=O)[C@@H](Cc1c[nH]cn1)NC(=O)CN(C)C(=O)[C@@H](N)CCCCN)[C@H](C)O)C(=O)N[C@H](Cc1ccccc1)C(N)=O [lys-sar-dHdTdRGdTdF-NH2] (H-K[Sar][dH][dT][dR]G[dT][dF]-NH2),"Relative peak area(%), HPLC peak a","5 h in plasma pH 7.4, 37° C., molecular weight 702",17.0%
same,"Relative peak area(%), HPLC peak b","5 h in plasma, molecular weight 902",83.0%
same,"Relative peak area(%), HPLC peak a",11 h in plasma,29.2%
same,"Relative peak area(%), HPLC peak b",11 h in plasma,70.8%
same,"Relative peak area(%), HPLC peak a",24 h in plasma,60.2%
same,"Relative peak area(%), HPLC peak b",24 h in plasma,39.8%
same,"Relative peak area(%), HPLC peak a",32 h in plasma,54.0%
same,"Relative peak area(%), HPLC peak b",32 h in plasma,46.0%
same,"Relative peak area(%), HPLC peak a",48 h in plasma,27.6%
same,"Relative peak area(%), HPLC peak b",48 h in plasma,72.4%
PLA6 analog: glucagon peptide with first 5 amino acids removed and remaining N-terminal amino group replaced with a hydroxyl group (phenyl-lactic acid),glucagon antagonist potency compared with analogs having a slightly extended N-terminus,[3],appreciably more potent antagonist
